For series [1], the target named is T1, GRPR (Homo sapiens, UniProt P30550). In words: Competitive binding assay with [125I-Tyr4]bombesin on PC3 cells. Further details: host or cells: PC3 cells (whole, adherent cells in 24-well plates). Particulars: read-out: Ki (affinity for GRPR). The method, then: Competition assays were performed in 24-well plates using PC3 cells. The cells were cultured until near confluence, and the medium was replaced by 400 μL of reaction medium (RPMI complemented with 2 mg/mL BSA, 4.8 mg/mL HEPES, 1 U/mL penicillin G and 1 μg/mL streptomycin). For the assay, equal volumes of radioactive and non-radioactive ligands were added. […] The plates were incubated for 40 min at 37°C with agitation. After the incubation, the reaction medium was removed, and the cells were washed three times with PBS at room temperature. The cells were harvested and counted in a gamma counter (Cobra II auto-gamma counter, Packard, MN, USA). Experiments were realized three times in triplicate. Data were analyzed with GraphPad Prism 5 Software (GraphPad Software, San Diego, CA, USA) to determine the IC50. Finally, the Ki was determined using Cheng and Pursoff's formula [32].

Series [2] addresses T2, GRPR (Mus musculus, UniProt P21729).
T2 construct: using the pancreas, a GRPR-rich tissue, as a target for specific receptor-mediated accumulation; from tissue; host or cells: Female Balb/c mice, in vivo; organs (pancreas and others) collected 30 min p.i
In words: Biodistribution in Balb/c mice (in vivo GRPR-targeting efficacy). Particulars: mouse, pancreas, intravenous, total radioactivity; 64Cu-labeled peptide, female Balb/c mice, 30 min p.i. As for the experimental part:
To determine the in vivo GRPR-targeting efficacy of labeled peptides, biodistribution of female Balb/c mice were realized with a minimum of 4 mice for each condition. Briefly, mice were injected with 370 to 740 kBq (10 to 20 μCi; 100 μL) of either ^64Cu/NOTA-monomer, ^64Cu/NOTA-dimer 1 or ^64Cu/NOTA-dimer 2 via the caudal vein. The animals were sacrificed with CO2 at 30 min post-injection [p.i.]. Organs of interest were then collected, weighed and measured in a gamma counter. The results were expressed as percentage of the injected dose per gram of tissue [%ID/g].

The target of series [3] is T1, GRPR. In words: Competitive binding in human breast cancer T47D cells. Particulars: tested in triplicate. An excerpt: Table 1 Analytical data for NOTA-BBN(6-14) monomer and dimmers | column: Peptide
The format of series [4] is in vitro ADME. As to conditions: 24 h. The method, then: Plasma and in vivo stability studies were realized as previously described by our group. Briefly, after peptide reconstitution, studies were carried out by incubating the tracers in mouse plasma for a period of 24 h and by injecting around 15 to 25 MBq (400 to 650 μCi; 100 μL) of ^64Cu/peptide to female Balb/c mice; 3 mice per peptide. After 24 h, a portion of the incubation mixtures in plasma or blood samples taken from the back paw were quenched with equal amounts of MeCN, chilled (4°C) and centrifuged, and the supernatant was assayed by HPLC. The stability was also determined by radio-TLC directly from plasma and blood samples without further handling; free ^64Cu and purified radiolabeled peptides were used as standards. The radio-TLCs were eluted on C-18-coated plastic sheets with 0.1 M sodium citrate buffer at pH 5.5 using an instant imager system for the radio-detection.

The subject of series [5] is PC3 tumor. Briefly: in vivo. Further details: species or system Balb/c nude mice. As to conditions: Balb/c nude, mouse, 2 h. As for the experimental part:
(§1) Tumor-bearing Balb/c nude mice were injected with 370 to 740 kBq (10 to 20 μCi; 100 μL) of ^64Cu/NOTA-monomer and ^64Cu/NOTA-dimer 2 via the caudal vein and sacrificed with CO2 at different periods of time after injection. Organs of interest were then collected and weighed. -Radioactivity was measured in a gamma counter. The blocking experiments were realized by co-injecting 0.1 μmol of non-radiolabeled peptide. The results were expressed as %ID/g with a minimum of 3 mice for each condition.

A short description of series [6]: in vivo. Particulars: Balb/c nude, mouse, total radioactivity; for tissue to tissue ratio at 0.5 h / tissue to tissue ratio at 2 h: iv. The arrangement: species or system Balb/c nude mice. As for the experimental part: as §1

Numbered stars: 1 amine (or outer) side, 2 acyl side, 3 side chain; on linkers, the order of the positions; unused ones are H or OH. Bridge positions count the residues as written; N and C are the ends. Square brackets hold non-standard residues; d marks the D form. Peptide text beside a SMILES is read from it. I, II: the chains in the order shown. * marks the point of attachment. NOTA = O=C(O)CN1CCN(CC(=O)O)CCN(CC(=O)*)CC1; X1 = O=C(CCC(=O)[*:2])NCCOCCOCC(=O)[*:1]; 2Thi = N[C@@H](Cc1cccs1)C(=O)O; Nle = CCCC[C@H](N)C(=O)O; AEEA = NCCOCCOCC(=O)O; βAla = NCCC(=O)O

By Ki is commonly meant a measure of affinity in units of concentration, obtained from inhibition or displacement. Broadly, the tissue uptake is the percentage of the injected dose found per gram of tissue.

T1 sequence (P30550 whole entry): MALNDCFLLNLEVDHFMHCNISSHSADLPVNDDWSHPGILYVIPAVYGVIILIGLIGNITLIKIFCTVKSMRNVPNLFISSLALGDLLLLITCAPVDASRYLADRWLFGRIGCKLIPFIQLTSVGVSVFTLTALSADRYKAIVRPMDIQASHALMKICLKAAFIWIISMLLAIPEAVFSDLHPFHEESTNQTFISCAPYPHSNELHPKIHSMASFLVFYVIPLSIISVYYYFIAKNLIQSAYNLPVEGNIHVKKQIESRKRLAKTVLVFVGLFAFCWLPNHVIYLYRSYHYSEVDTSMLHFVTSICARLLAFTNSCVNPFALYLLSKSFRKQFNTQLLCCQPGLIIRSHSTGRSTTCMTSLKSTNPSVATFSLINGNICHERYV
T2 sequence (P21729 whole entry): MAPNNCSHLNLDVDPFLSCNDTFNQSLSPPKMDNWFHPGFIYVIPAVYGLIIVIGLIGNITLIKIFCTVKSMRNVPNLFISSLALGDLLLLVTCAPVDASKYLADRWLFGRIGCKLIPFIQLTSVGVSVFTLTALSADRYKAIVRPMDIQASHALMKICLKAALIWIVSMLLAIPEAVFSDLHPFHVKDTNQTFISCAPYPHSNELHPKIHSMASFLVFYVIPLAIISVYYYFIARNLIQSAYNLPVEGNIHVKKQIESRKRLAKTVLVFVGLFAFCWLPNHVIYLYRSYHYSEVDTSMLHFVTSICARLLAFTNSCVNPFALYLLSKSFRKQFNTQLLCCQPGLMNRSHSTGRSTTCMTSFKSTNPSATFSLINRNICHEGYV

`CCCC[C@H](NC(=O)[C@H](Cc1cccs1)NC(=O)[C@H](Cc1c[nH]cn1)NC(=O)CCNC(=O)[C@@H](NC(=O)[C@H](C)NC(=O)[C@H](Cc1c[nH]c2ccccc12)NC(=O)[C@H](CCC(N)=O)NC(=O)[C@@H](Cc1ccc(O)cc1)NC(=O)COCCOCCNC(=O)CN1CCN(CC(=O)O)CCN(CC(=O)O)CC1)C(C)C)C(N)=O` [NOTA-monomer, NOTA-PEG-BBN(6-14)] ({NOTA-AEEA}-[dY]QWAV[βAla]H[2Thi][Nle]-NH2): the results for the Ki in series [1] and in series [3] were 2.51 ± 1.54 nM and 1.3 nM, respectively. Besides, the tissue uptake at 0.5 h in series [2] amounted to 18.4 ± 2.9 %ID/g.
Regarding `CCCC[C@H](NC(=O)[C@H](Cc1cccs1)NC(=O)[C@H](Cc1c[nH]cn1)NC(=O)CCNC(=O)[C@@H](NC(=O)[C@H](C)NC(=O)[C@H](Cc1c[nH]c2ccccc12)NC(=O)[C@H](CCC(N)=O)NC(=O)[C@@H](Cc1ccc(O)cc1)NC(=O)CCC(=O)NCCOCCOCC(=O)N[C@@H](CCCCNC(=O)CN1CCN(CC(=O)O)CCN(CC(=O)O)CC1)C(=O)NCCOCCOCC(=O)NCC(=O)N[C@H](Cc1ccc(O)cc1)C(=O)N[C@@H](CCC(N)=O)C(=O)N[C@@H](Cc1c[nH]c2ccccc12)C(=O)N[C@@H](C)C(=O)N[C@H](C(=O)NCCC(=O)N[C@@H](Cc1c[nH]cn1)C(=O)N[C@@H](Cc1cccs1)C(=O)N[C@@H](CCCC)C(N)=O)C(C)C)C(C)C)C(N)=O` [^64Cu/NOTA-dimer 2, metal not drawn] (I: K(NOTA)[AEEA]G[dY]QWAV[βAla]H[2Thi][Nle]-NH2 / II: [dY]QWAV[βAla]H[2Thi][Nle]-NH2; linker I:N-II:N via X1), the “Stability in mouse plasma” value in series [4] was “stable”. For the same compound, the “Biodistribution Adrenal” value in series [5] was 11.56 ± 4.91 %ID/g. Further, the “Biodistribution Blood” value in series [5] is listed as 1.34 ± 0.15 %ID/g. Besides, the “Biodistribution Fat” value in series [5] was determined as 0.68 ± 0.61 %ID/g. The “Biodistribution Lungs” value in series [5] is given as 5.07 ± 1.58 %ID/g. In addition, the “Biodistribution Pancreas” value in series [5] is reported as 13.35 ± 7.38 %ID/g. Further, the “Biodistribution Plasma” value in series [5] worked out at 2.45 ± 0.27 %ID/g. For the same compound, the Tumor/pancreas ratio in series [5] (iv) came out at 0.36 ± 0.09. Also, the tissue to tissue ratio at 0.5 h in series [6] (Tumor/blood ratio) is 1.39 ± 0.3; in series [6] (Tumor/kidney ratio), 0.28 ± 0.09; in series [6] (Tumor/liver ratio), 0.1 ± 0.01; in series [6] (Tumor/muscle ratio), 3.95 ± 1.98; in series [6] (Tumor/pancreas ratio), 0.89 ± 0.11. The tissue to tissue ratio at 2 h came to 4.09 ± 1.79 in series [6] (Tumor/blood ratio), 0.22 ± 0.11 in series [6] (Tumor/kidney ratio), 0.22 ± 0.07 in series [6] (Tumor/liver ratio) and 4.46 ± 1.86 in series [6] (Tumor/muscle ratio). The tissue uptake at 0.5 h was 9.23 ± 5.01 %ID/g in series [6] (Biodistribution Adrenal); 3.13 ± 0.67 %ID/g in series [6] (Biodistribution Blood); 0.78 ± 0.21 %ID/g in series [6] (Biodistribution Bone); 0.38 ± 0.06 %ID/g in series [6] (Biodistribution Brain); 1.86 ± 0.81 %ID/g in series [6] (Biodistribution Fat); 4.42 ± 1.59 %ID/g in series [6] (Biodistribution Heart). Further, the tissue uptake at 0.5 h came to 17 ± 6.24 %ID/g in series [6] (Biodistribution Kidney); 41.8 ± 5.58 %ID/g in series [6] (Biodistribution Liver); 7.22 ± 2.73 %ID/g in series [6] (Biodistribution Lungs); 1.59 ± 1.16 %ID/g in series [6] (Biodistribution Muscle); 4.6 ± 0.57 %ID/g in series [6] (Biodistribution Pancreas); 5.27 ± 1.27 %ID/g in series [6] (Biodistribution Plasma). Moreover, the tissue uptake at 0.5 h in series [6] (Biodistribution Spleen) was 5.31 ± 1.43 %ID/g; in series [6] (Biodistribution Tumor) it was 3.95 ± 0.26 %ID/g. Further, the tissue uptake at 2 h in series [6] (Biodistribution Bone) worked out at 0.83 ± 0.19 %ID/g; in series [6] (Biodistribution Brain), 0.22 ± 0.05 %ID/g; in series [6] (Biodistribution Heart), 2.68 ± 0.13 %ID/g; in series [6] (Biodistribution Kidney), 26.4 ± 8.13 %ID/g; in series [6] (Biodistribution Liver), 23.1 ± 2.36 %ID/g; in series [6] (Biodistribution Muscle), 1.13 ± 0.62 %ID/g. Also, the tissue uptake at 2 h came out at 5.5 ± 2.61 %ID/g in series [6] (Biodistribution Spleen) and 6.28 ± 2.87 %ID/g in series [6] (Biodistribution Tumor).
